Source: patent US6683184B2, “Piperazine derivatives and process for the preparation thereof” (Samjin Pharmaceutical Co., Ltd., priority 1999, dated 2004)
In brackets after ≈: the same amount, converted by molar mass.

Tests used:
Type in all cases: cell-based
[1] = test system: A549 (human non-small lung cell); assay: In vitro antitumor effect against human tumor cell lines, SRB assay, A549; settings: A549 cells, 48 hours; for IC50: Homo sapiens, read-out: ED50 A 549
Procedure: (§1) In vitro antitumor effect against human tumor cell lines.
(§2) a. Human solid tumor cell lines, A549(non-small lung cell), SKMEL-2(melanoma), HCT-15(colon), SKOV-3(ovarian), XF-498(CNS) were cultured at 37° C. in 5% CO2 incubators using RPMI 1640 media containing 10% FBS, while they were transfer-cultured successively once or twice per week. Cell cultures were dissolved in a solution of 0.25% trypsin and 3 mM CDTA PBS(−) and then cells were separated from media which the cells were sticked on.
(§3) b. 5×10^3˜2×10^4 cells were added into each well of 96-well plate and cultured in 5% CO2 incubator, at 37° C., for 24 hours.
(§4) c. Each sample drug was dissolved in a little DMSO and diluted with the used medium to a prescribed concentration for experiments, wherein the final concentration of DMSO was controlled below 0.5%.
(§5) d. Medium of each well cultured for 24 hours as above b. was removed by aspiration. Each 200 μl of drug samples prepared in c. was added into each well and the wells were cultured for 48 hours. Tz(time zero) plates were collected at the point of time drugs were added.
(§6) e. According to the SRB assay method, cell fixing with TCA, staining with 0.4% SRB solution, washing with 1% acetic acid and elution of dye with 10 mM Tris solution were carried out on Tz plates and culture-ended plates, whereby OD values were measured at 520 nm.
(§7) a. Time zero(Tz) value was determined with measuring the SRB protein amounts of the Tz plates collected at the point of time drugs were added.
(§8) b. Control value(C) was determined with the OD values of wells untreated with a drug.
(§9) c. Drug-treated test value(T) was determined with the OD values of drug-treated wells.
(§10) d. Effects of drugs were estimated with growth stimulation, net growth inhibition, net killing etc., being calculated from Tz, C and T.
(§11) e. If T≧Tz, cellular response function was calculated by 100×(T−Tz)/(C−Tz), and if T<Tz, by 100×(T−Tz)/Tz.

SKOV-3 (human ovarian) = assay: In vitro antitumor effect against human tumor cell lines, SRB assay, SKOV-3; settings: SK-OV-3 cells, 48 hours; for IC50: Homo sapiens, read-out: ED50 SK-OV-3
Procedure: as §1, §2, §3, §4, §5, §6, §7, §8, §9, §10, §11

SKMEL-2 (human melanoma) = assay: In vitro antitumor effect against human tumor cell lines, SRB assay, SKMEL-2; settings: SK-MEL-2 cells, 48 hours; for IC50: Homo sapiens, read-out: ED50 SK-MEL-2
Procedure: as §1, §2, §3, §4, §5, §6, §7, §8, §9, §10, §11

XF 498 (human CNS) = assay: In vitro antitumor effect against human tumor cell lines, SRB assay, XF 498; settings: 48 hours; for IC50: Homo sapiens, XF498, XF-498 cells, read-out: ED50 XF-498; for ED50 XF-498: XF-498 cells
Procedure: as §1, §2, §3, §4, §5, §6, §7, §8, §9, §10, §11

HCT-15 (human colon) = assay: In vitro antitumor effect against human tumor cell lines, SRB assay, HCT-15; settings: HCT 15 cells, 48 hours; for IC50: Homo sapiens, read-out: ED50 HCT 15
Procedure: as §1, §2, §3, §4, §5, §6, §7, §8, §9, §10, §11

[2] = test system: P388 (mouse lymphoid neoplasma cell); assay: In vitro antitumor effects against animal leukemia cells, dye exclusion assay; settings: 48 hours, trypan blue dye exclusion, read-out: P388 (IC50, concentration showing 50% cell growth inhibition compared with the control)
Procedure: In vitro antitumor effects against animal leukemia cells.
Tumor cell line: P388 (mouse lymphoid neoplasma cell)
B. Method: Dye Exclusion Assay.
1) Concentrations of P388 cells being cultured in RPMI 1640 media containing 10% FBS were regulated to 1×10^6 cells/ml.
2) Sample drugs of respective concentrations diluted in the ratio of log doses were added into each cell culture and cultured at 37° C., for 48 hours, in […] incubator, and then viable cell numbers were measured by dye exclusion test using trypan blue.

IC50 [1] [ng/mL] | IC50 (SKOV-3 (human ovarian)) [ng/mL] | IC50 (SKMEL-2 (human melanoma)) [ng/mL] | IC50 (XF 498 (human CNS)) [ng/mL] | IC50 (HCT-15 (human colon)) [ng/mL] | IC50 [2] [ng/mL] | SMILES | ED50 A 549 [1] [ng/mL] | ED50 SK-OV-3 (SKOV-3 (human ovarian)) [ng/mL] | ED50 SK-MEL-2 (SKMEL-2 (human melanoma)) [ng/mL] | ED50 XF-498 (XF 498 (human CNS)) [ng/mL] | ED50 HCT 15 (HCT-15 (human colon)) [ng/mL]
32 (≈ 0.0862 µM) | 88 (≈ 0.237 µM) | 29 (≈ 0.0781 µM) | 84 (≈ 0.226 µM) | 19 (≈ 0.0512 µM) | 300 (≈ 0.808 µM) | COc1ccccc1N1CCN(C(=O)Nc2nc(C)c(C)nc2OC)CC1 [Example 2, 1-[(5,6-Dimethyl-2-methoxypyrazin-3-yl)aminocarbonyl]-4-(2-methoxyphenyl)piperazine] |  |  |  |  | 
1.6 (≈ 0.00399 µM) | 6.4 (≈ 0.0159 µM) | 1.5 (≈ 0.00374 µM) | 2.2 (≈ 0.00548 µM) | 2 (≈ 0.00498 µM) | 10 (≈ 0.0249 µM) | COc1cc(OC)cc(N2CCN(C(=O)Nc3nc(C)c(C)nc3OC)CC2)c1 [Example 3, 1-[(5,6-Dimethyl-2-methoxypyrazin-3-yl)aminocarbonyl]-4-(3,5-dimethoxyphenyl)piperazine] |  |  |  |  | 
 |  |  |  |  | 20 (≈ 0.0487 µM) | COc1nc(C)c(C)nc1NC(=O)N1CCN(c2cc(Cl)cc(Cl)c2)CC1 [Example 11, 1-[(5,6-Dimethyl-2-methoxypyrazin-3-yl)aminocarbonyl]-4-(3,5-dichlorophenyl)piperazine] |  |  |  |  | 
8 (≈ 0.0212 µM) | 69 (≈ 0.183 µM) | 8 (≈ 0.0212 µM) | 17 (≈ 0.045 µM) | 1 (≈ 0.00265 µM) | 100 (≈ 0.265 µM) | COc1nc(C)c(C)nc1NC(=O)N1CCN(c2cc(F)cc(F)c2)CC1 [Example 12, 1-[(5,6-Dimethyl-2-methoxypyrazin-3-yl)aminocarbonyl]-4-(3,5-difluorophenyl)piperazine] |  |  |  |  | 
6.4 (≈ 0.0154 µM) | 143 (≈ 0.344 µM) | 43 (≈ 0.103 µM) | 93 (≈ 0.224 µM) | 80 (≈ 0.193 µM) | 200 (≈ 0.481 µM) | COc1cc(OC)cc(N2CCN(C(=O)N(C)c3nc(C)c(C)nc3OC)CC2)c1 [Example 19, 1-[(5,6-Dimethyl-2-methoxypyrazin-3-yl)N-methylaminocarbonyl]-4-(3,5-dimethoxyphenyl)piperazine] |  |  |  |  | 
 |  |  |  |  |  | COc1nc(C)c(CO)cc1N=C(NO)N1CCN(c2cc(F)cc(F)c2)CC1 [Example 127, N-Hydroxy-N′-(5-hydroxymethyl-2-methoxy-6-methylpyridin-3-yl)-[4-(3,5-difluorophenyl)piperazin-1-yl]carboxyimidamide] | 13 (≈ 0.0319 µM) | 11 (≈ 0.027 µM) | 5 (≈ 0.0123 µM) | 6 (≈ 0.0147 µM) | 2 (≈ 0.00491 µM)
 |  |  |  |  |  | COc1nc(C)c(C(C)=O)cc1N=C(NO)N1CCN(c2cc(C)cc(C)c2)CC1 [Example 132, N-Hydroxy-N′-(5-acetyl-2-methoxy-6-methylpyridin-3-yl)-[4-(3,5-dimethylphenyl)piperazin-1-yl]carboxyimidamide] | 11 (≈ 0.0267 µM) | 7 (≈ 0.017 µM) | 1 (≈ 0.00243 µM) | 2 (≈ 0.00486 µM) | 1 (≈ 0.00243 µM)
 |  |  |  |  |  | COc1cc(OC)cc(N2CCN(C(=Nc3cc(C(C)=O)c(C)nc3OC)NO)CC2)c1 [Example 133, N-Hydroxy-N′-(5-acetyl-2-methoxy-6-methylpyridin-3-yl)-[4-(3,5-dimethoxyphenyl)piperazin-1-yl]carboxyimidamide] | 0.1 (≈ 0.000225 µM) | 0.1 (≈ 0.000225 µM) | 0.1 (≈ 0.000225 µM) | 0.1 (≈ 0.000225 µM) | 0.1 (≈ 0.000225 µM)
 |  |  |  |  |  | COc1nc(C)c(C(C)O)cc1N=C(NO)N1CCN(c2cc(C)cc(C)c2)CC1 (stereo not drawn) [Example 138, N-Hydroxy-N′-[5-(1-hydroxyethyl)-2-methoxy-6-methylpyridin-3-yl]-[4-(3,5-dimethylphenyl)piperazin-1-yl]carboxyimidamide] | 74 (≈ 0.179 µM) | 30 (≈ 0.0725 µM) | 16 (≈ 0.0387 µM) | 18 (≈ 0.0435 µM) | 6 (≈ 0.0145 µM)
 |  |  |  |  |  | COc1cc(OC)cc(N2CCN(C(=Nc3cc(C(C)O)c(C)nc3OC)NO)CC2)c1 (stereo not drawn) [Example 139, N-Hydroxy-N′-[5-(1-hydroxyethyl)-2-methoxy-6-methylpyridin-3-yl]-[4-(3,5-dimethoxyphenyl)piperazin-1-yl]carboxyimidamide] | 0.7 (≈ 0.00157 µM) | 0.7 (≈ 0.00157 µM) | 0.2 (≈ 0.000449 µM) | 0.3 (≈ 0.000673 µM) | 0.4 (≈ 0.000898 µM)
 |  |  |  |  |  | CCc1nc(OC)c(N=C(NO)N2CCN(c3cc(OC)cc(OC)c3)CC2)cc1C(=O)OC [Example 159, N-Hydroxy-N′-(6-ethyl-5-methoxycarbonyl-2-methoxypyridin-3-yl)-[4-(3,5-dimethoxyphenyl)piperazin-1-yl]carboxyimidamide] | 29 (≈ 0.0612 µM) | 10 (≈ 0.0211 µM) | 2 (≈ 0.00422 µM) | 6 (≈ 0.0127 µM) | 0.6 (≈ 0.00127 µM)
 |  |  |  |  |  | COc1cc(OC)cc(N2CCN(C(=Nc3cc4ccccc4nc3OC)NO)CC2)c1 [Example 172, N-Hydroxy-N′-(2-methoxyquinolin-3-yl)-[4-(3,5-dimethoxyphenyl)-piperazin-1-yl]carboxyimidamide] | 70 (≈ 0.16 µM) | 80 (≈ 0.183 µM) | 20 (≈ 0.0457 µM) | 30 (≈ 0.0686 µM) | 20 (≈ 0.0457 µM)
 |  |  |  |  |  | COc1nc2ccccc2cc1N=C(NO)N1CCN(c2cc(C)cc(C)c2)CC1 [Example 173, N-Hydroxy-N′-(2-methoxyquinolin-3-yl)-[4-(3,5-dimethylphenyl)-piperazin-1-yl]carboxyimidamide] | 400 (≈ 0.986 µM) | 860 (≈ 2.12 µM) | 150 (≈ 0.37 µM) | 210 (≈ 0.518 µM) | 180 (≈ 0.444 µM)
 |  |  |  |  |  | COc1nc2ccccc2cc1N=C(NO)N1CCN(c2cccc(Cl)c2)CC1 [Example 176, N-Hydroxy-N′-(2-methoxyquinolin-3-yl)-[4-(3-chlorophenyl)-piperazin-1-yl]carboxyimidamide] | 1.2 (≈ 0.00291 µM) | 0.9 (≈ 0.00219 µM) | 0.3 (≈ 0.000728 µM) | 0.1 (≈ 0.000243 µM) | 0.1 (≈ 0.000243 µM)
 |  |  |  |  |  | COc1cc(C)c(C)cc1N=C(NO)N1CCN(c2ccccc2)CC1 [Example 177, N-Hydroxy-N′-(4,5-dimethyl-2-methoxyphenyl-1-yl)-(4-phenylpiperazin-1-yl)carboxyimidamide] | 0.6 (≈ 0.00169 µM) | 0.8 (≈ 0.00226 µM) | 0.3 (≈ 0.000846 µM) | 0.4 (≈ 0.00113 µM) | 0.1 (≈ 0.000282 µM)
 |  |  |  |  |  | COc1cc(C)c(C)cc1N=C(NO)N1CCN(c2cc(C)cc(C)c2)CC1 [Example 180, N-Hydroxy-N′-(4,5-dimethyl-2-methoxyphenyl-1-yl)-[4-(3,5-dimethylphenyl)piperazin-1-yl]carboxyimidamide] | 280 (≈ 0.732 µM) | 160 (≈ 0.418 µM) | 310 (≈ 0.81 µM) | 240 (≈ 0.627 µM) | 160 (≈ 0.418 µM)
 |  |  |  |  |  | COc1cc(OC)cc(N2CCN(C(=Nc3cc(C)c(C)cc3OC)NO)CC2)c1 [Example 181, N-Hydroxy-N′-(4,5-dimethyl-2-methoxyphenyl-1-yl)-[4-(3,5-dimethoxyphenyl)piperazin-1-yl]carboxyimidamide] | 130 (≈ 0.314 µM) | 60 (≈ 0.145 µM) | 110 (≈ 0.265 µM) | 40 (≈ 0.0965 µM) | 20 (≈ 0.0483 µM)
 |  |  |  |  |  | COc1cc(C)c(C)cc1N=C(NO)N1CCN(c2cc(F)cc(F)c2)CC1 [Example 182, N-Hydroxy-N′-(4,5-dimethyl-2-methoxyphenyl-1-yl)-[4-(3,5-difluorophenyl)piperazin-1-yl]carboxyimidamide] | 292 (≈ 0.748 µM) | 81 (≈ 0.207 µM) | 33 (≈ 0.0845 µM) | 103 (≈ 0.264 µM) | 6 (≈ 0.0154 µM)

SMILES | IC50 [1] [ng/mL] | IC50 (SKOV-3 (human ovarian)) [ng/mL] | IC50 (SKMEL-2 (human melanoma)) [ng/mL] | IC50 (XF 498 (human CNS)) [ng/mL] | IC50 (HCT-15 (human colon)) [ng/mL] | IC50 [2] [ng/mL] | ED50 A 549 [1] [ng/mL] | ED50 SK-OV-3 (SKOV-3 (human ovarian)) [ng/mL] | ED50 SK-MEL-2 (SKMEL-2 (human melanoma)) [ng/mL] | ED50 XF-498 (XF 498 (human CNS)) [ng/mL] | ED50 HCT 15 (HCT-15 (human colon)) [ng/mL]
COc1nc(C)c(C)nc1NC(=O)N1CCN(c2cc([N+](=O)[O-])cc([N+](=O)[O-])c2)CC1 [Example 15, 1-[(5,6-Dimethyl-2-methoxypyrazin-3-yl)aminocarbonyl]-4-(3,5-dinitrophenyl)piperazine] | 79 (≈ 0.183 µM) | 184 (≈ 0.427 µM) | 38 (≈ 0.0881 µM) | 96 (≈ 0.223 µM) | 71 (≈ 0.165 µM) | 700 (≈ 1.62 µM) |  |  |  |  | 
